The text below walks through data of article PMC4620497 (Scientific Reports, 2015).

Structures are written as SMILES.

The subject of one assay is FLT3. The settings on record: previously identified FLT3 inhibitor; read-out: IC50 against FLT3; cited from earlier work.
In another assay the target is T1, ERBB4 (Homo sapiens, UniProt Q15303).
T1 construct: purchased DiscoveRx KINOMEscan (Ambit Biosciences)
Further details: method as in earlier work. The following applies: Table S1; cited from earlier work.

The target in the next assay is T2, BRAF (Homo sapiens, UniProt P15056).
T2 construct: purchased DiscoveRx KINOMEscan (Ambit Biosciences)
The assay can be described thus: KINOMEscan panel screen. The format is binding. The following applies: read-out: Percent Control(%).

The next assay concerns the target BTK (Homo sapiens, UniProt Q06187). Nature of the assay: KINOMEscan panel screen. In kind it is binding. The settings on record: read-out: Percent Control(%).
The target of another assay is T3, CASK (Homo sapiens, UniProt O14936).
T3 construct: purchased DiscoveRx KINOMEscan (Ambit Biosciences)
The assay can be described thus: KINOMEscan panel screen. In kind it is binding. The settings on record: read-out: Percent Control(%).

In another assay the target is T4, CSNK1G2 (Homo sapiens, UniProt P78368).
T4 construct: purchased DiscoveRx KINOMEscan (Ambit Biosciences)
The assay can be described thus: KINOMEscan panel screen. In kind it is binding. The settings on record: read-out: Percent Control(%).

A further assay has as its target T5, DAPK3 (Homo sapiens, UniProt O43293).
T5 construct: purchased DiscoveRx KINOMEscan (Ambit Biosciences)
The assay can be described thus: KINOMEscan panel screen. In kind it is binding. The settings on record: read-out: Percent Control(%).

The target in the next assay is T6, EGFR(E746-A750del) (Homo sapiens, UniProt P00533, DEL746-750).
T6 construct: purchased DiscoveRx KINOMEscan (Ambit Biosciences)
The assay can be described thus: KINOMEscan panel screen. In kind it is binding. The settings on record: read-out: Percent Control(%).

A further assay deals with T7, FER (Homo sapiens, UniProt P16591).
T7 construct: purchased DiscoveRx KINOMEscan (Ambit Biosciences)
Nature of the assay: KINOMEscan panel screen. In kind it is binding. The following applies: read-out: Percent Control(%).

In another assay the target is T8, FGFR1 (Homo sapiens, UniProt P11362).
T8 construct: purchased DiscoveRx KINOMEscan (Ambit Biosciences)
Nature of the assay: KINOMEscan panel screen. The format is binding. The settings on record: read-out: Percent Control(%).

The target of the next assay is T9, FGFR3 (Homo sapiens, UniProt P22607).
T9 construct: purchased DiscoveRx KINOMEscan (Ambit Biosciences)
Nature of the assay: KINOMEscan panel screen. The format is binding. The following applies: read-out: Percent Control(%).

For a further assay, the target named is T10, FGFR3(G697C) (Homo sapiens, UniProt P22607, G697C).
T10 construct: purchased DiscoveRx KINOMEscan (Ambit Biosciences)
Nature of the assay: KINOMEscan panel screen. The following applies: read-out: Percent Control(%). In kind it is binding.

The next assay concerns the target T11, FLT3(K663Q) (Homo sapiens, UniProt P36888, K663Q).
T11 construct: purchased DiscoveRx KINOMEscan (Ambit Biosciences)
The assay can be described thus: KINOMEscan panel screen. The settings on record: read-out: Percent Control(%). The format is binding.

The next assay has as its target T12, IKK-beta (Homo sapiens, UniProt O14920).
T12 construct: purchased DiscoveRx KINOMEscan (Ambit Biosciences)
Nature of the assay: KINOMEscan panel screen. The format is binding. The settings on record: read-out: Percent Control(%).

The next assay concerns the target T13, LIMK1 (Homo sapiens, UniProt P53667).
T13 construct: purchased DiscoveRx KINOMEscan (Ambit Biosciences)
Nature of the assay: KINOMEscan panel screen. In kind it is binding. The settings on record: read-out: Percent Control(%).

Another assay has as its target T14, LRRK2 (Homo sapiens, UniProt Q5S007).
T14 construct: purchased DiscoveRx KINOMEscan (Ambit Biosciences)
The assay can be described thus: KINOMEscan panel screen. In kind it is binding. The settings on record: read-out: Percent Control(%).

In the next assay the target is T15, MEK2 (Homo sapiens, UniProt P36507).
T15 construct: purchased DiscoveRx KINOMEscan (Ambit Biosciences)
Nature of the assay: KINOMEscan panel screen. In kind it is binding. The settings on record: read-out: Percent Control(%).

A further assay addresses T16, MRCKB (Homo sapiens, UniProt Q9Y5S2).
T16 construct: purchased DiscoveRx KINOMEscan (Ambit Biosciences)
The assay can be described thus: KINOMEscan panel screen. In kind it is binding. The following applies: read-out: Percent Control(%).

The target of a further assay is T17, NDR1 (Homo sapiens, UniProt Q15208).
T17 construct: purchased DiscoveRx KINOMEscan (Ambit Biosciences)
Nature of the assay: KINOMEscan panel screen. In kind it is binding. The settings on record: read-out: Percent Control(%).

The target in another assay is T18, NEK4 (Homo sapiens, UniProt P51957).
T18 construct: purchased DiscoveRx KINOMEscan (Ambit Biosciences)
Nature of the assay: KINOMEscan panel screen. The settings on record: read-out: Percent Control(%). The format is binding.

The target of the next assay is T19, PDPK1 (Homo sapiens, UniProt O15530).
T19 construct: purchased DiscoveRx KINOMEscan (Ambit Biosciences)
The assay can be described thus: KINOMEscan panel screen. In kind it is binding. The settings on record: read-out: Percent Control(%).

The next assay addresses T20, PFCDPK1(P.falciparum) (Plasmodium falciparum, UniProt P62344).
T20 construct: purchased DiscoveRx KINOMEscan (Ambit Biosciences)
Nature of the assay: KINOMEscan panel screen. The settings on record: read-out: Percent Control(%). In kind it is binding.

The target in a further assay is T21, PFTK1 (Homo sapiens, UniProt O94921).
T21 construct: purchased DiscoveRx KINOMEscan (Ambit Biosciences)
Nature of the assay: KINOMEscan panel screen. In kind it is binding. The settings on record: read-out: Percent Control(%).

The target of a further assay is T22, PIK3CA(I800L) (Homo sapiens, UniProt P42336, I800L).
T22 construct: purchased DiscoveRx KINOMEscan (Ambit Biosciences)
The assay can be described thus: KINOMEscan panel screen. The format is binding. The following applies: read-out: Percent Control(%).

The target in a further assay is T23, PYK2 (Homo sapiens, UniProt Q14289).
T23 construct: purchased DiscoveRx KINOMEscan (Ambit Biosciences)
Nature of the assay: KINOMEscan panel screen. In kind it is binding. The settings on record: read-out: Percent Control(%).

The next assay has as its target T24, SIK2 (Homo sapiens, UniProt Q9H0K1).
T24 construct: purchased DiscoveRx KINOMEscan (Ambit Biosciences)
The assay can be described thus: KINOMEscan panel screen. The following applies: read-out: Percent Control(%). The format is binding.

A further assay concerns the target T25, TAOK1 (Homo sapiens, UniProt Q7L7X3).
T25 construct: purchased DiscoveRx KINOMEscan (Ambit Biosciences)
Nature of the assay: KINOMEscan panel screen. In kind it is binding. The settings on record: read-out: Percent Control(%).

In another assay the target is T26, TNK1 (Homo sapiens, UniProt Q13470).
T26 construct: purchased DiscoveRx KINOMEscan (Ambit Biosciences)
The assay can be described thus: KINOMEscan panel screen. The format is binding. The following applies: read-out: Percent Control(%).

The next assay has as its target T27, YES (Homo sapiens, UniProt P07947).
T27 construct: purchased DiscoveRx KINOMEscan (Ambit Biosciences)
Nature of the assay: KINOMEscan panel screen. The format is binding. The following applies: read-out: Percent Control(%).

A further assay has as its target T28, YSK4 (Homo sapiens, UniProt Q56UN5).
T28 construct: purchased DiscoveRx KINOMEscan (Ambit Biosciences)
The assay can be described thus: KINOMEscan panel screen. The format is binding. The following applies: read-out: Percent Control(%).

The next assay deals with T29, PDGFRβ (Homo sapiens, UniProt P09619).
T29 construct: purchased Ambit Biosciences (KINOMEscan)
Nature of the assay: KINOMEscan kinase binding assay (Kd).

The next assay addresses T30, MET (Homo sapiens, UniProt P08581).
T30 construct: purchased DiscoveRx KINOMEscan (Ambit Biosciences)
The assay can be described thus: KINOMEscan kinase binding assay (Kd).

Assay [1] relates to total β-catenin and active β-catenin in STF3a cells. Nature of the assay: Western blot of β-catenin in STF3a cells. The format is cell-based. The following applies: 10 μM or above, 24 h. (A western blot detects proteins with antibodies after separation by electrophoresis.)
The next assay relates to THP-1. Nature of the assay: MTT cell viability assay. The following applies: Homo sapiens, THP-1, 72 h. Background: Tetrazolium dyes change colour on reduction, which living cells bring about.
The next assay concerns H358. Nature of the assay: MTT cell viability assay. The following applies: Homo sapiens, NCI-H358, 72 h.
For the next assay, the system named is PLC/PRF/5. The assay can be described thus: MTT cell viability assay. The settings on record: Homo sapiens, PLC-PRF-5, 72 h.

T16 sequence (Q9Y5S2 whole entry): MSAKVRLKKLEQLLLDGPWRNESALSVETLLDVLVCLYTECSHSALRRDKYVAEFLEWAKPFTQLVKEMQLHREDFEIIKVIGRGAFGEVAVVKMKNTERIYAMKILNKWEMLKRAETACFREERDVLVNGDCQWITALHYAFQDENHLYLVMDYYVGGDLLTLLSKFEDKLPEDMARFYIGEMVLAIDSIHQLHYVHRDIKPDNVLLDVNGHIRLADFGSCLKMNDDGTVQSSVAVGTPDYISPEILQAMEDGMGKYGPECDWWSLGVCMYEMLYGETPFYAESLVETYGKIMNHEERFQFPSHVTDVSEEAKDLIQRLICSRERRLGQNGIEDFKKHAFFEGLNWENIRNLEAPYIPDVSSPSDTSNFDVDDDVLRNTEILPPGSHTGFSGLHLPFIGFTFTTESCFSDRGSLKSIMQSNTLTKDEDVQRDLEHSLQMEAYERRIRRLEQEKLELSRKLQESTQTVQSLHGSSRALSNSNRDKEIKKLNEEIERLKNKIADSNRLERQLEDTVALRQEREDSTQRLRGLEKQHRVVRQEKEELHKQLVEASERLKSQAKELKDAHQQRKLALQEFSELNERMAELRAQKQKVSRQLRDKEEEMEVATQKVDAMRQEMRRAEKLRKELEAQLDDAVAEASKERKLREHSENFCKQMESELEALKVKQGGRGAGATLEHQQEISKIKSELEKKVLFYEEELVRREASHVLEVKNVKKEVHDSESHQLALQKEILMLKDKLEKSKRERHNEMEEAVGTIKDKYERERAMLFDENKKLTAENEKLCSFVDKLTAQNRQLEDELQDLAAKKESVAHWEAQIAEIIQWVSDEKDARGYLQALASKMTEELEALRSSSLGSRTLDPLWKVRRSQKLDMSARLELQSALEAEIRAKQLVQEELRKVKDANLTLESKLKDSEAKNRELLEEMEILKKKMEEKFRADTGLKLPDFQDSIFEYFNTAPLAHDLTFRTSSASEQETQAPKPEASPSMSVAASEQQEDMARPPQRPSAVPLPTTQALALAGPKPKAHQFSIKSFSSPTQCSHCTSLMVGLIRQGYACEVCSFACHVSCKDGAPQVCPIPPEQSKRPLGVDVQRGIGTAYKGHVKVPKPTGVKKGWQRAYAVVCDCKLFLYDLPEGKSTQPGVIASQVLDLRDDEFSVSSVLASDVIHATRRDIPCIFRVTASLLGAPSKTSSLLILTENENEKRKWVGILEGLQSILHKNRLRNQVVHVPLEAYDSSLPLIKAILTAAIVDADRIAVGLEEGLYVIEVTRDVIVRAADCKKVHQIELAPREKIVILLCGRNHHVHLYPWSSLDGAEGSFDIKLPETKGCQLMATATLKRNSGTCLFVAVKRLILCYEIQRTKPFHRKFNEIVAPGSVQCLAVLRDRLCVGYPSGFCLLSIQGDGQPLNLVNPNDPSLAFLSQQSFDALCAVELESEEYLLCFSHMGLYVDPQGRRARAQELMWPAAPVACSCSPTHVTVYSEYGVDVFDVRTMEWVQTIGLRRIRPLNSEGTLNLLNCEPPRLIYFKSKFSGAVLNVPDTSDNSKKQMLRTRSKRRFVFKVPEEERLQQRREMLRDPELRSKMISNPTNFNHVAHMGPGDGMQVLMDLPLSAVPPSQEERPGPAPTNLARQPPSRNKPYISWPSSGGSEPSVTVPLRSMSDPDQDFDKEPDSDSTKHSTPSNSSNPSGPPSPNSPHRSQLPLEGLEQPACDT
T30 sequence (P08581 25-1390): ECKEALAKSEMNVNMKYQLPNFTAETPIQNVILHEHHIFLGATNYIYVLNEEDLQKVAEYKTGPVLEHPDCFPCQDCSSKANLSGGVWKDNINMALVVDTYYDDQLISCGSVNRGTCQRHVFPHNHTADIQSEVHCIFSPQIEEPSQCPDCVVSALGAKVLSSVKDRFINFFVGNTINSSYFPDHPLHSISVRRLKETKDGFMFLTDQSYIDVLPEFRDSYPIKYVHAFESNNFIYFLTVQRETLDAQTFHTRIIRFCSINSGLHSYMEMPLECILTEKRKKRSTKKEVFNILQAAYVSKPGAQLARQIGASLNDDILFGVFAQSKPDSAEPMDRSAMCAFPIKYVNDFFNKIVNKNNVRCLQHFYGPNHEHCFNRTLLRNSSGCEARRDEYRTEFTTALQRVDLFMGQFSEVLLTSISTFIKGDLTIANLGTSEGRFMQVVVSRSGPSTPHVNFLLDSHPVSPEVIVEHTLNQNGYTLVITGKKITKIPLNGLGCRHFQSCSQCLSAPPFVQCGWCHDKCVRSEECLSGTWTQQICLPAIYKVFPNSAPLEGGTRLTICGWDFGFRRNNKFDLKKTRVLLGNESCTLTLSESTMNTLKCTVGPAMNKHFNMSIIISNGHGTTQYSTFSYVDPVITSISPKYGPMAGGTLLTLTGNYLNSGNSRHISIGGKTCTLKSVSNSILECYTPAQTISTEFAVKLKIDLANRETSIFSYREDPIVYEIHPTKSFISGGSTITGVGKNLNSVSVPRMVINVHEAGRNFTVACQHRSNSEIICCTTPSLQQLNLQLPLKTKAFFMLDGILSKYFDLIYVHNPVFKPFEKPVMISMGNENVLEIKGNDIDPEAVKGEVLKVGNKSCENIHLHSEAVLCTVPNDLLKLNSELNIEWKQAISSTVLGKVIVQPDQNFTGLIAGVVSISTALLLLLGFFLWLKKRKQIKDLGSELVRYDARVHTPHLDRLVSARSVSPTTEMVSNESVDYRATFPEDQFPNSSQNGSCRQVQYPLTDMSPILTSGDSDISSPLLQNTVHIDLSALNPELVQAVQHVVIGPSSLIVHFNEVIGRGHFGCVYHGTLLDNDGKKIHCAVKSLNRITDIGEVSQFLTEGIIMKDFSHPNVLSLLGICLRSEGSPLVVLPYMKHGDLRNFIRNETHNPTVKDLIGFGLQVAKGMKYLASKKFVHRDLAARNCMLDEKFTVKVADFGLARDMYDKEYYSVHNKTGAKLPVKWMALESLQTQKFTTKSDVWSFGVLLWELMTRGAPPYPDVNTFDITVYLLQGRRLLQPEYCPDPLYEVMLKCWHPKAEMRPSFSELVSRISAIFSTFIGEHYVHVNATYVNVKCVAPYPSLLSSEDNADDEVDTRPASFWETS
T24 sequence (Q9H0K1 whole entry): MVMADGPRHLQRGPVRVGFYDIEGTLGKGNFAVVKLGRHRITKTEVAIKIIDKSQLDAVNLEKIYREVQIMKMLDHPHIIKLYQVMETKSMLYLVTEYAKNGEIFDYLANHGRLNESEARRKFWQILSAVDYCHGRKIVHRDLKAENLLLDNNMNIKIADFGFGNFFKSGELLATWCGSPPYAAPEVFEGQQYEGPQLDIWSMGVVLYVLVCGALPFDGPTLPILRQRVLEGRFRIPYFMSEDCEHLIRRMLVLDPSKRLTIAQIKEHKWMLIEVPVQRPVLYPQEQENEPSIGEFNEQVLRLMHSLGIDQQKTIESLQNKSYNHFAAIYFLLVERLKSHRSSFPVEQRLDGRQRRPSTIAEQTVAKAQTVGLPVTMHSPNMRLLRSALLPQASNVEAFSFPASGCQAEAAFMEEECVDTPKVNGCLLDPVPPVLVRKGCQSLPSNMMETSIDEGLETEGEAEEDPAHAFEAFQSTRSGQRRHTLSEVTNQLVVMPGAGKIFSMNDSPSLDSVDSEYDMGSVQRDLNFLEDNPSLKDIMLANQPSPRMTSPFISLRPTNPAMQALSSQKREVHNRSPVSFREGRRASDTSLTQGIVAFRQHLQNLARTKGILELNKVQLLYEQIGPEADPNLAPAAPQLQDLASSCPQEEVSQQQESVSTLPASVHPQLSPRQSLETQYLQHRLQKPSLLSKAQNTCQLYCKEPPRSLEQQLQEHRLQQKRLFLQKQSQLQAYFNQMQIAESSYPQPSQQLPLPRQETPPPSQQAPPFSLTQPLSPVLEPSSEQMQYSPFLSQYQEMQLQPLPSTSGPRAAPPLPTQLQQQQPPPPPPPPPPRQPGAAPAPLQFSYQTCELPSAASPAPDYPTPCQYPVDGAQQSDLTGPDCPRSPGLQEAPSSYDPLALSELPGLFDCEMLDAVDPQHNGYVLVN
T15 sequence (P36507 whole entry): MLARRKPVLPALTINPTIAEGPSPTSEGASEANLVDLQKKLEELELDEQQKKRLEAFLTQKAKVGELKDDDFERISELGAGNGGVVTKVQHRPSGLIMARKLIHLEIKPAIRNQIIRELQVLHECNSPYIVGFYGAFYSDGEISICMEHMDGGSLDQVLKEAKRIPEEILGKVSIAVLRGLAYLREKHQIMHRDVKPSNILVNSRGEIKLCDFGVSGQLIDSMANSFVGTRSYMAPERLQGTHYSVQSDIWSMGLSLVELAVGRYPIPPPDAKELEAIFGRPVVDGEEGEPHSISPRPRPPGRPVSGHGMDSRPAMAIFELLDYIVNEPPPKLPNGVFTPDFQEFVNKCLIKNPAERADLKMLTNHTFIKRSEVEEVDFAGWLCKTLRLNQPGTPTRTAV
T21 sequence (O94921 whole entry): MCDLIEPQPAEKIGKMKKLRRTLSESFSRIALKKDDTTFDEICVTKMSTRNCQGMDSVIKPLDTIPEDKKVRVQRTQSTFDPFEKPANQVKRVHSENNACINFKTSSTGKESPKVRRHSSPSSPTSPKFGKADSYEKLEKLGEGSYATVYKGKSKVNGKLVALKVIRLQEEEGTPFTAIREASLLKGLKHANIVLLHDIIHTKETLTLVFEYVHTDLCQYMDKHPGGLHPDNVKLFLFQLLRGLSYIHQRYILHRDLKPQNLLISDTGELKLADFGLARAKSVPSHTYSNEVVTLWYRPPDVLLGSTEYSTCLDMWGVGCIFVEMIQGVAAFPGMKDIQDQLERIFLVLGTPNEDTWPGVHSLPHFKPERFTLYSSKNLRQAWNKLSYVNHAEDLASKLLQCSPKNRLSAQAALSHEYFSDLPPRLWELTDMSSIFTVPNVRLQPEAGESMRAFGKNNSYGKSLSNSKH

Take `O=C(Nc1ccc(Oc2ncnc3[nH]ncc23)cc1)Nc1ccc(Cl)c(C(F)(F)F)c1` [Compound 1, 1-(4-(1H-pyrazolo[3,4-d]pyrimidin-4-yloxy)phenyl)-3-(4-chloro-3-(trifluoromethyl)phenyl)urea]: the IC50 (as a rule, the concentration at which inhibition is half-maximal) with FLT3 is 0.039 µM; on ERBB4, above 10 µM.
For the molecule `CC(C)(C)c1cc(NC(=O)Nc2ccc(Oc3ncnc4[nH]ncc34)c(F)c2)no1` [SKLB-677, 1-(4-(1H-pyrazolo[3,4-d]pyrimidin-4-yloxy)-3-fluorophenyl)-3-(5-tert-butylisoxazol-3-yl)urea], the remaining binding at 10 µM on BRAF came to 2.7%; at BTK, 100%; at CASK, 59%; at CSNK1G2, 26%; at DAPK3, 71%; on EGFR(E746-A750del), 37%. Also, the remaining binding at 10 µM on FER turned out to be 24%; on FGFR1 it was 1.4%; on FGFR3 it was 12%; at FGFR3(G697C), 22%; at FLT3(K663Q), 1.8%; at IKK-beta it was 64%. Also, the remaining binding at 10 µM amounted to 25% at LIMK1; 52% at LRRK2; 5.9% at MEK2; 90% on MRCKB; 58% on NDR1; 38% at NEK4. Also, the remaining binding at 10 µM was determined as 100% on PDPK1; 26% on PFCDPK1(P.falciparum); 0.05% at PFTK1; 87% on PIK3CA(I800L); 64% at PYK2; 69% on SIK2. For the same molecule, the remaining binding at 10 µM on TAOK1 was found to be 3.2%; on TNK1, 2.2%; at YES, 27%; at YSK4, 0.15%. Besides, the Kd (in general, a measure of binding affinity in units of concentration) at PDGFRβ worked out at 0.0027 µM; on MET, 0.22 µM. Further, in assay [1], the “protein levels of the total β-catenin and active β-catenin” value is recorded as “slightly decreased”. The IC50 in the assay with THP-1 is above 10 µM; with H358 it was 8 µM; in the assay with PLC/PRF/5, above 10 µM.
